Assay results from patent US8741934B2, “Inhibitors of ion channels” (Pfizer Limited, priority 2007, dated 2014).

Target: T1, hSCN3A sodium channels (Homo sapiens, UniProt Q9NY46)
T1 construct: expressed in transfected cells
Experiment: hSCN3A electrophysiology, Ionworks Quattro automated platform (Table C)
Assay type: cell-based
Settings: for inhibition at 3 µM: 3 μM compound, read-out: SCN3A % INHIB HTS IWQ 3 μM; for inhibition at 10 µM: 10 μM compound, read-out: SCN3A % INHIB HTS IWQ 10 μM; for SCN3A INHIB INACT DRC EP IWQ EMAX: Emax of dose-response curve, inactivated state
Protocol: Human Embryonic Kidney (HEK) cells were transfected with an hSCN3A construct using lipofectamine reagent (Invitrogen), using standard techniques. […] Clones were screened for expression using the whole-cell voltage-clamp technique.
HEK cells stably transfected with hSCN3A were maintained in DMEM medium supplemented with 10% heat-inactivated fetal bovine serum and 400 μg/ml G418 sulfate in an incubator at 37° C. with a humidified atmosphere of 10% CO2. […] For electrophysiological studies, cells were removed from the culture flask by brief trypsinization and replated at low density onto glass cover slips. Cells were typically used for electrophysiological experiments within 24 to 72 h after plating.
Electrophysiological assays were also conducted using the Ionworks Quattro automated electrophysiological platform (Molecular Devices Corp) (Table C). Intracellular and extracellular solutions were as described above with the following changes, 100 μg/ml amphotericin was added to the intracellular solution to perforate the membrane and allow electrical access to the cells. hSCN3A cells were grown and harvested as for PatchXpress and cells were resuspended in extracellular solution at a concentration of 3-4×10^6 cells/ml. The onboard liquid handling facility of the Ionworks Quattro was used for dispensing cells and application of test compounds. A voltage protocol was then applied that comprised of a voltage step to fully inactivate the sodium channels, followed by a brief hyperpolarized recovery period to allow partial recovery from inactivation for unblocked sodium channels, followed by a test depolarized voltage step to assess magnitude of inhibition by test compound. Compound effect was determined based on current amplitude difference between the pre-compound addition and post-compound addition scans.

T1 sequence (Q9NY46 whole entry): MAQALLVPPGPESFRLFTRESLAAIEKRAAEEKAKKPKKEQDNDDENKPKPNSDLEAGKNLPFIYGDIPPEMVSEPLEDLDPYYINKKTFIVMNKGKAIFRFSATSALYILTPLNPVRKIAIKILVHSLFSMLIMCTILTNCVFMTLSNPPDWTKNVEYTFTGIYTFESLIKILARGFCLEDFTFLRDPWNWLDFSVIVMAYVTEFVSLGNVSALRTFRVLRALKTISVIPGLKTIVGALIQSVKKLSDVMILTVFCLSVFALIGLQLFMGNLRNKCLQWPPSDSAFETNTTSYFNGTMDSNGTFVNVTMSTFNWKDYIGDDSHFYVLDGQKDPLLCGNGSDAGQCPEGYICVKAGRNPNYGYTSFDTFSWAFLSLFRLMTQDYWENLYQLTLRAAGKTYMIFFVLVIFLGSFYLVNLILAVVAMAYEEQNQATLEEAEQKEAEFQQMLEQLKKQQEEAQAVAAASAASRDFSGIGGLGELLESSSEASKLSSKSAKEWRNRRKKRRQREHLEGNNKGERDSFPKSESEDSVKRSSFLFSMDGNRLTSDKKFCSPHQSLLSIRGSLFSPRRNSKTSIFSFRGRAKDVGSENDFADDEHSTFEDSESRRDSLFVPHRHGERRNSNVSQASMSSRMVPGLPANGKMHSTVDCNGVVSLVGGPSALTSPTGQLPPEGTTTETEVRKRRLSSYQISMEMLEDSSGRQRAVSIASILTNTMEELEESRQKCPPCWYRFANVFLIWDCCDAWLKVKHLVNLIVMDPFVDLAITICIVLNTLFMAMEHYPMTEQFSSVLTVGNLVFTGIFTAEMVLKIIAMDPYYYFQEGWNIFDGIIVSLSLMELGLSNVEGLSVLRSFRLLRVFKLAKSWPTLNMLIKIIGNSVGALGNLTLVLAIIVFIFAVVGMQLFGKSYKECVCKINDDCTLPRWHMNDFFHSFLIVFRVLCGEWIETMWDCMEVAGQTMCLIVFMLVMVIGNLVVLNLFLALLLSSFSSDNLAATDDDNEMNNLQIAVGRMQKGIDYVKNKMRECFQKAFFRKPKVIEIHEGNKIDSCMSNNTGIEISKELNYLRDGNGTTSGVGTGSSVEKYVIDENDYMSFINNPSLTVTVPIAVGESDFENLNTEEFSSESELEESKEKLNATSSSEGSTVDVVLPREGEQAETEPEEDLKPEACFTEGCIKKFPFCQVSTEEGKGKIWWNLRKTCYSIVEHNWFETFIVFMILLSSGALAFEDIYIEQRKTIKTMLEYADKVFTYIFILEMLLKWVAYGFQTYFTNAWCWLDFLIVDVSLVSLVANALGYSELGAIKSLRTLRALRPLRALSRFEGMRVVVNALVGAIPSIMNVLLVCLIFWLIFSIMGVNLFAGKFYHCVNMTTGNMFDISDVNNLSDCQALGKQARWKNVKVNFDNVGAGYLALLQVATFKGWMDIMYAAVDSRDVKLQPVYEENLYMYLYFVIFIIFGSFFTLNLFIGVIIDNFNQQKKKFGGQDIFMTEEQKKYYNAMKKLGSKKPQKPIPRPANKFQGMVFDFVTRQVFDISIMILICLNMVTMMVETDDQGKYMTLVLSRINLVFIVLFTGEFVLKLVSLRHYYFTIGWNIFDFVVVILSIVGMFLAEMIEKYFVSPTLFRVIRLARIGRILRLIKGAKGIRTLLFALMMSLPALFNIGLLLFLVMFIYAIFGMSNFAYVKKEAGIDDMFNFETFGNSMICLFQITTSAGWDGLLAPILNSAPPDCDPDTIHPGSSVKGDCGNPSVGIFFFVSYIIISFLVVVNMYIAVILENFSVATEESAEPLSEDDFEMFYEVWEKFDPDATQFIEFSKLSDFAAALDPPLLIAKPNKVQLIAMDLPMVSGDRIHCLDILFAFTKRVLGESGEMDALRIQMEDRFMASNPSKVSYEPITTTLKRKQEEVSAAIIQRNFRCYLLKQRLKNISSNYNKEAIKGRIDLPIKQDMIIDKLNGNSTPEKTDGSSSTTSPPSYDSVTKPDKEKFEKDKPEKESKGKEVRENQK

| Structure (SMILES) | inhibition at 3 µM | inhibition at 10 µM | SCN3A INHIB INACT DRC EP IWQ EMAX | IC50 (read-out: SCN3A IWQ IC-50) |
| --- | --- | --- | --- | --- |
| O=C(N[C@@H](CO)Cc1ccccc1)c1ccc(S(=O)(=O)Nc2nccs2)cc1 [Example 185, N-[(1R)-1-benzyl-2-hydroxyethyl]-4-[(1,3-thiazol-2-ylamino)sulfonyl]benzamide] | 20.9% | 20.8% |  |  |
| CC[C@@H](NC(=O)c1ccc(S(=O)(=O)Nc2nccs2)cc1)c1ccccc1 [Example 150, N-[(1R)-1-phenylpropyl]-4-[(1,3-thiazol-2-ylamino)sulfonyl]benzamide] | -7.12% | 22.6% |  |  |
| O=C(c1ccc(S(=O)(=O)Nc2nccs2)cc1)N1CCC(CCc2ccccc2)C1 (centres unmarked) [Example 227, 4-{[3-(2-Phenylethyl)pyrrolidin-1-yl]carbonyl}-N-1,3-thiazol-2-yl-benzenesulfonamide] | 29.3% | 45.8% | 53 | 20.3 µM |
| COc1ccc(CC2(NC(=O)c3ccc(S(=O)(=O)Nc4nccs4)cc3)CC2)cc1 [Example 162, N-[1-(4-methoxybenzyl)cyclopropyl]-4-[(1,3-thiazol-2-ylamino)sulfonyl]benzamide] | 28% | 13.7% |  |  |
| CCc1ccc(C)nc1NC(=O)c1ccc(S(=O)(=O)Nc2nccs2)cc1 [Example 178, N-(3-ethyl-6-methylpyridin-2-yl)-4-[(1,3-thiazol-2-ylamino)sulfonyl]benzamide] | 2.71% | 1.55% |  |  |
| CC(NC(=O)c1ccc(S(=O)(=O)Nc2nccs2)cc1)c1ccccc1Cl (centres unmarked) [Example 143, N-[1-(2-chlorophenyl)ethyl]-4-[(1,3-thiazol-2-ylamino)sulfonyl]benzamide] | 16% | 32% |  |  |
| Cc1cccc(C2(C)CN(C(=O)c3ccc(S(=O)(=O)Nc4nccs4)cc3)CCO2)c1 (centres unmarked) [Example 189, 4-{[2-Methyl-2-(3-methylphenyl)morpholin-4-yl]carbonyl}-N-1,3-thiazol-2-yl-benzenesulfonamide] | 25.3% | 21% |  |  |
| Cc1cccc(CC2COCCN(C(=O)c3ccc(S(=O)(=O)Nc4nccs4)cc3)C2)n1 (centres unmarked) [Example 225, 4-({6-[(6-Methylpyridin-2-yl)methyl]-1,4-oxazepan-4-yl}carbonyl)-N-1,3-thiazol-2-yl-benzenesulfonamide] | 6.08% | -8.14% |  |  |
| CCOc1ccccc1CNC(=O)c1ccc(S(=O)(=O)Nc2nccs2)cc1 [Example 89, N-(2-ethoxybenzyl)-4-[(1,3-thiazol-2-ylamino)sulfonyl]benzamide] | 14% | 48.2% |  |  |
| Cc1ccccc1O[C@@H]1CCN(C(=O)c2ccc(S(=O)(=O)Nc3nccs3)cc2)C1 [Example 204, 4-{[(3R)-3-(2-methylphenoxy)pyrrolidin-1-yl]carbonyl}-N-1,3-thiazol-2-yl-benzenesulfonamide] | 18.1% | 16.2% |  |  |
| O=C(c1ccc(S(=O)(=O)Nc2nccs2)cc1)N1CCCCC1CCn1cccn1 (centres unmarked) [Example 190, 4-({2-[2-(1H-pyrazol-1-yl)ethyl]piperidin-1-yl}carbonyl)-N-1,3-thiazol-2-yl-benzenesulfonamide] | 2.77% | -8.21% |  |  |
| O=C(NCc1cccc(OC(F)(F)F)c1)c1ccc(S(=O)(=O)Nc2nccs2)c(Cl)c1 [Example 285, 3-Chloro-4-[(1,3-thiazol-2-ylamino)sulfonyl]-N-[3-(trifluoromethoxy)benzyl]benzamide] | 15.1% | 39.1% |  |  |
| O=C(c1ccc(S(=O)(=O)Nc2nccs2)cc1)N1CCCC1c1ccccc1 (centres unmarked) [Example 205, 4-[(2-Phenylpyrrolidin-1-yl)carbonyl]-N-1,3-thiazol-2-yl-benzenesulfonamide] | 11.3% | 27.3% |  |  |
| O=C(c1ccc(S(=O)(=O)Nc2nccs2)cc1)N1CCC(Cc2ccccc2)C1 (centres unmarked) [Example 282, 4-[(3-Benzylpyrrolidin-1-yl)carbonyl]-N-1,3-thiazol-2-yl-benzenesulfonamide] | 29.1% | 11.4% |  |  |
| O=C(N[C@@H]1CCC[C@@H]1c1cc(F)cc(F)c1)c1ccc(S(=O)(=O)Nc2nccs2)cc1 [Example 128, N-[(1R,2R)-2-(3,5-difluorophenyl)cyclopentyl]-4-[(1,3-thiazol-2-ylamino)sulfonyl]benzamide] | 11.7% | -1.66% |  |  |
| O=C(c1ccc(S(=O)(=O)Nc2nccs2)cc1)N1CCCCCC1c1ccccn1 (centres unmarked) [Example 255, 4-[(2-Pyridin-2-ylazepan-1-yl)carbonyl]-N-1,3-thiazol-2-yl-benzenesulfonamide] | 4.16% | 6.56% |  |  |

| Structure (SMILES) | inhibition at 3 µM | inhibition at 10 µM | SCN3A INHIB INACT DRC EP IWQ EMAX | IC50 (read-out: SCN3A IWQ IC-50) |
| --- | --- | --- | --- | --- |
| O=C(NCc1cccc(C(F)(F)F)c1)c1ccc(S(=O)(=O)Nc2nccs2)c(Cl)c1 [Example 288, 3-Chloro-4-[(1,3-thiazol-2-ylamino)sulfonyl]-N-[3-(trifluoromethyl)benzyl]benzamide] | 4.38% | 13.4% |  |  |
| COc1ccc(OC2CCCN(C(=O)c3ccc(S(=O)(=O)Nc4nccs4)cc3)C2)cc1 (centres unmarked) [Example 203, 4-{[3-(4-Methoxyphenoxy)piperidin-1-yl]carbonyl}-N-1,3-thiazol-2-yl-benzenesulfonamide] | 13.1% | 17.7% |  |  |
| CC(c1ccccc1)N(CCO)C(=O)c1ccc(S(=O)(=O)Nc2nccs2)cc1 (centres unmarked) [Example 229, N-(2-hydroxyethyl)-N-(1-phenylethyl)-4-[(1,3-thiazol-2-yl-amino)sulfonyl]benzamide] | 12.5% | 3.91% |  |  |
| COc1cccc(C2CCCCCN2C(=O)c2ccc(S(=O)(=O)Nc3nccs3)cc2)c1 (centres unmarked) [Example 275, 4-{[2-(3-Methoxyphenyl)azepan-1-yl]carbonyl}-N-1,3-thiazol-2-yl-benzenesulfonamide] | 9.93% | -0.2% |  |  |
| O=C(c1ccc(S(=O)(=O)Nc2nccs2)cc1)N1CCCCC1c1cccc(F)c1 (centres unmarked) [Example 221, 4-{[2-(3-Fluorophenyl)piperidin-1-yl]carbonyl}-N-1,3-thiazol-2-yl-benzenesulfonamide] | 19.9% | 21.8% |  |  |
| C[C@H]([C@@H](O)c1ccccc1)N(C)C(=O)c1ccc(S(=O)(=O)Nc2nccs2)cc1 [Example 241, N-[(1R,2S)-2-hydroxy-1-methyl-2-phenylethyl]-N-methyl-4-[(1,3-thiazol-2-ylamino)sulfonyl]benzamide] | 21.7% | 11.6% |  |  |
| COc1ccc(CCNC(=O)c2ccc(S(=O)(=O)Nc3nccs3)cc2)cc1 [Example 169, N-[2-(4-methoxyphenyl)ethyl]-4-[(1,3-thiazol-2-ylamino)sulfonyl]benzamide] | 35.3% | 27.3% |  |  |
| O=C(c1ccc(S(=O)(=O)Nc2nccs2)cc1)N1CCOC(CN2Cc3ccccc3C2=O)C1 (centres unmarked) [Example 210, 4-({2-[(1-Oxo-1,3-dihydro-2H-isoindol-2-yl)methyl]morpholin-4-yl}carbonyl)-N-1,3-thiazol-2-ylbenzenesulfonamide] | 4.03% | 11.9% |  |  |
| CN(CC(O)c1ccccc1)C(=O)c1ccc(S(=O)(=O)Nc2nccs2)cc1 (centres unmarked) [Example 250, N-(2-hydroxy-2-phenylethyl)-N-methyl-4-[(1,3-thiazol-2-yl-amino)sulfonyl]benzamide] | -4.32% | 0.12% |  |  |
| N#Cc1cccc(OC2CCCN(C(=O)c3ccc(S(=O)(=O)Nc4nccs4)cc3)C2)c1 (centres unmarked) [Example 265, 4-{[3-(3-Cyanophenoxy)piperidin-1-yl]carbonyl}-N-1,3-thiazol-2-yl-benzenesulfonamide] | 22.6% | 44.3% | 32.2 |  |
| O=C(NC1(Cc2cccc(Cl)c2)CC1)c1ccc(S(=O)(=O)Nc2nccs2)cc1 [Example 137, N-[1-(3-chlorobenzyl)cyclopropyl]-4-[(1,3-thiazol-2-ylamino)sulfonyl]benzamide] | 21.8% | 36.2% |  |  |
| O=C(N[C@@H]1CCC[C@@H]1c1ccc(F)cc1)c1ccc(S(=O)(=O)Nc2nccs2)cc1 [Example 132, N-[(1R,2R)-2-(4-fluorophenyl)cyclopentyl]-4-[(1,3-thiazol-2-ylamino)sulfonyl]benzamide] | 19.7% | 15.3% |  |  |
| CN(CC1Cc2ccccc2O1)C(=O)c1ccc(S(=O)(=O)Nc2nccs2)cc1 (centres unmarked) [Example 274, N-(2,3-dihydro-1-benzofuran-2-ylmethyl)-N-methyl-4-[(1,3-thiazol-2-ylamino)sulfonyl]benzamide] | 14.6% | 19.6% |  |  |
| Cc1ccc([C@H](C)NC(=O)c2ccc(S(=O)(=O)Nc3nccs3)cc2)cc1 [Example 79, N-[(1S)-1-(4-methylphenyl)ethyl]-4-[(1,3-thiazol-2-ylamino)sulfonyl]benzamide] | 17.7% | -1.9% |  |  |
| O=C(c1ccc(S(=O)(=O)Nc2nccs2)cc1)N1CCCC(COc2ccc(F)cc2)C1 (centres unmarked) [Example 264, 4-({3-[(4-Fluorophenoxy)methyl]piperidin-1-yl}carbonyl)-N-1,3-thiazol-2-yl-benzenesulfonamide] | 16.9% | 14.8% |  |  |
